Test results: PubChem BioAssay AID248 (DTP/NCI, 2004)
Toxic doses and inconclusive results are not listed. Cut-off read from the data, not from the text of the source: active = T/C of 150% or more; inactive = T/C below 125%.

Test system: L1210 leukemia ip in BDF1 mice, survival T/C
Experiment: NCI In Vivo Anticancer Drug Screen. Data for tumor model L1210 Leukemia (intraperitoneal) in B6D2F1 (BDF1) mice
Conditions: endpoint: mean survival time, higher = longer survival
Outline: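 Mice bearing the transplanted tumor received compound or vehicle. Survival of the treated group was divided by that of the vehicle-treated control group to give the ratio.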

[1] = dose: 100.0 mg/kg/injection, schedule: Q01DX009 (ip), vehicle: Klucel (hydroxypropylcellulose) (HPC)
[2] = dose: 200.0 mg/kg/injection, schedule: Q01DX009 (ip), vehicle: Klucel (hydroxypropylcellulose) (HPC)
[3] = dose: 400.0 mg/kg/injection, schedule: Q01DX009 (ip), vehicle: Klucel (hydroxypropylcellulose) (HPC)
[4] = dose: 100.0 mg/kg/injection, schedule: Q04DX003 (ip), vehicle: Klucel (hydroxypropylcellulose) (HPC)
[5] = dose: 200.0 mg/kg/injection, schedule: Q04DX003 (ip), vehicle: Klucel (hydroxypropylcellulose) (HPC)
[6] = dose: 400.0 mg/kg/injection, schedule: Q04DX003 (ip), vehicle: Klucel (hydroxypropylcellulose) (HPC)
[7] = dose: 100.0 mg/kg/injection, schedule: Q01DX001 (ip), vehicle: saline
[8] = dose: 200.0 mg/kg/injection, schedule: Q01DX001 (ip), vehicle: saline

Measured: T/C

NC(=O)N1Cc2ccccc2Cc2ccccc2C1
inactive: [1] 101 % of control | [2] 92 % of control | [3] 95 % of control

CCOC(=O)c1ccc(C(=O)O)[n+]([O-])c1
inactive: [1] 100 % of control | [4] 92 % of control | [2] 95 % of control | [5] 100 % of control | [6] 96 % of control

O=C(CSCc1ccc([N+](=O)[O-])cc1)c1ccc(Br)cc1
inactive: [7] 92 % of control | [8] 95 % of control | dose: 400.0 mg/kg/injection, schedule: Q01DX001 (ip), vehicle: saline 92 % of control

O=C(Nc1ccccc1)OCC1CC2CCC1C2 (configuration not stated)
inactive: [1] 96 % of control | [4] 95 % of control | [2] 94 % of control | [5] 93 % of control | [3] 96 % of control | [6] 93 % of control

CSc1nc(N(C)C)c2[nH]c(C)nc2n1
inactive: [7] 87 % of control | [8] 101 % of control

CCCCCCCOC(=O)COc1ccc(Cl)cc1Cl
inactive: dose: 100.0 mg/kg/injection, schedule: Q04DX002 (ip), vehicle: Klucel (hydroxypropylcellulose) (HPC) 90 % of control | dose: 200.0 mg/kg/injection, schedule: Q04DX002 (ip), vehicle: Klucel (hydroxypropylcellulose) (HPC) 87 % of control | dose: 400.0 mg/kg/injection, schedule: Q04DX002 (ip), vehicle: Klucel (hydroxypropylcellulose) (HPC) 97 % of control
